# From patent US9867833B2, “Serine/threonine kinase inhibitors” (GENENTECH, INC., priority 2013, dated 2018)
# pIC50: −log10 of the molar value.
# Molecular target: human ERK-2 (Mitogen Activated Kinase 1) (Homo sapiens (Human), UniProt P28482)
# Test: ERK-2 Enzymatic Assay
# Format: biochemical
# Settings: human ERK-2 enzyme 5 nM, 25 μM ATP, S/T17 peptide substrate; isomer = configuration of CR2R3
# Experimental: Compounds were tested in an enzymatic assay using human ERK-2 (Mitogen Activated Kinase 1), recombinantly expressed as an n-terminal 6-His fusion protein in E. coli and corresponding to aa 8-360. […] Test compounds were diluted in DMSO in 3-fold serial dilutions at 100× final concentrations. […] The data collected from each well was fit to a straight line, and the resulting rates were used to calculate percent of control. Percent of control was plotted against compound concentration, and IC50 values were determined using a four-parameter fit.
# human ERK-2 (Mitogen Activated Kinase 1), sequence (P28482 8-360): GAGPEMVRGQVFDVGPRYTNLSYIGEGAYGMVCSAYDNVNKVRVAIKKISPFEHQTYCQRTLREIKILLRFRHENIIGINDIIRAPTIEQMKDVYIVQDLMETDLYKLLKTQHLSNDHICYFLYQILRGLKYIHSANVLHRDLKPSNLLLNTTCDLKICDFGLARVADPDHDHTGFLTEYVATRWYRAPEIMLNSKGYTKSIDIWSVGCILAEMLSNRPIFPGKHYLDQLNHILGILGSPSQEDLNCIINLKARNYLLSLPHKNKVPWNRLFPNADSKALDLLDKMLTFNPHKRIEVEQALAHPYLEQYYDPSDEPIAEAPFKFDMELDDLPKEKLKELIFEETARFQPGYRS
row,pIC50,Compound
1,8.95,"CC(C)C[C@@H]1c2nnc3cc(-c4ccnc(Nc5ccnn5C)n4)cc(n23)NC(=O)N1C [Compound I-23, (R)-9-isobutyl-8-methyl-4-(2-((1-methyl-1H-pyrazol-5-yl)amino)pyrimidin-4-yl)-8,9-dihydro-1,2,2a^1,6,8-pentaazabenzo[cd]azulen-7(6H)-one]"
2,10.70,"COc1ccc(C[C@H]2COc3cc(-c4ccnc(Nc5ccnn5C)n4)cc4nnc2n34)cc1 [(R) I-50, 4-(3-(4-methoxybenzyl)-3,4-dihydro-5-oxa-1,2,2a^1-triazaacenaphthylen-7-yl)-N-(1-methyl-1H-pyrazol-5-yl)pyrimidin-2-amine]"
3,8.96,"Cn1nccc1Nc1nccc(-c2cc3n4c(nnc4c2)[C@@H](c2ccccc2)CN3)n1 [(S) I-1, N-(1-methyl-1H-pyrazol-5-yl)-4-(3-phenyl-4,5-dihydro-3H-1,2,2a^1,5-tetraazaacenaphthylen-7-yl)pyrimidin-2-amine]"
4,8.55,"COc1ccc(C[C@H]2CC(=O)N(C)c3cc(-c4ccnc(Nc5ccnn5C)c4)cc4nnc2n34)c(F)c1 [(S) I-74, 9-(2-fluoro-4-methoxybenzyl)-6-methyl-4-(2-((1-methyl-1H-pyrazol-5-yl)amino)pyridin-4-yl)-8,9-dihydro-1,2,2a^1,6-tetraazabenzo[cd]azulen-7(6H)-one]"
5,8.63,"CN1C(=O)N[C@H](CC2CC2)c2nnc3cc(-c4ccnc(Nc5ccnn5C)n4)cc1n23 [Compound I-51, (R)-9-(cyclopropylmethyl)-6-methyl-4-(2-((1-methyl-1H-pyrazol-5-yl)amino)pyrimidin-4-yl)-8,9-dihydro-1,2,2a^1,6,8-pentaazabenzo[cd]azulen-7(6H)-one]"
6,8.59,"Cn1nccc1Nc1nccc(-c2cc3n4c(nnc4c2)[C@H](Oc2ccc(F)c(F)c2)CCO3)n1 [(R) I-111, 4-(9-(3,4-difluorophenoxy)-8,9-dihydro-7H-6-oxa-1,2,2a^1-triazabenzo[cd]azulen-4-yl)-N-(1-methyl-1H-pyrazol-5-yl)pyrimidin-2-amine]"
7,6.74,"CCC[C@@H]1CC(=O)N(C)c2cc(-c3ccnc(Nc4ccnn4C)n3)cc3nnc1n23 [(R) I-64, 6-methyl-4-(2-((1-methyl-1H-pyrazol-5-yl)amino)pyrimidin-4-yl)-9-propyl-8,9-dihydro-1,2,2a^1,6-tetraazabenzo[cd]azulen-7(6H)-one]"
8,7.37,"Cn1nccc1Nc1cc(-c2cc3n4c(nnc4c2)[C@H](c2ccccc2)CN3)ccn1 (single isomer, unassigned) [(R) I-4, N-(1-methyl-1H-pyrazol-5-yl)-4-(3-phenyl-4,5-dihydro-3H-1,2,2a^1,5-tetraazaacenaphthylen-7-yl)pyridin-2-amine]"
9,> 10.70,"Cn1nccc1Nc1cc(-c2cc3n4c(nnc4c2)[C@@H](Oc2cncc(Cl)c2)CCO3)ccn1 [(S) I-78, 4-(9-((5-chloropyridin-3-yl)oxy)-8,9-dihydro-7H-6-oxa-1,2,2a^1-triazabenzo[cd]azulen-4-yl)-N-(1-methyl-1H-pyrazol-5-yl)pyridin-2-amine]"
10,7.59,"Cn1nccc1Nc1nccc(-c2cc3n4c(nnc4c2)[C@H](Oc2cncc(F)c2)CCO3)n1 [(R) I-91, 4-(9-((5-fluoropyridin-3-yl)oxy)-8,9-dihydro-7H-6-oxa-1,2,2a^1-triazabenzo[cd]azulen-4-yl)-N-(1-methyl-1H-pyrazol-5-yl)pyrimidin-2-amine]"
11,6.92,"COc1ncccc1C[C@@H]1CN(C)c2cc(-c3ccnc(Nc4ccnn4C)n3)cc3nnc1n23 [(R) I-43, 4-(3-((2-methoxypyridin-3-yl)methyl)-5-methyl-4,5-dihydro-3H-1,2,2a^1,5-tetraazaacenaphthylen-7-yl)-N-(1-methyl-1H-pyrazol-5-yl)pyrimidin-2-amine]"
12,> 10.70,"Cn1nccc1Nc1cc(-c2cc3n4c(nnc4c2)[C@@H](Cc2ccc(Cl)cc2)CO3)ccn1 [(R) I-48, 4-(3-(4-chlorobenzyl)-3,4-dihydro-5-oxa-1,2,2a^1-triazaacenaphthylen-7-yl)-N-(1-methyl-1H-pyrazol-5-yl)pyridin-2-amine]"
13,10.64,"CC(C)C[C@H]1CCOc2cc(-c3ccnc(Nc4ccnn4C)n3)cc3nnc1n23 [(S) I-107, 4-(9-isobutyl-8,9-dihydro-7H-6-oxa-1,2,2a^1-triazabenzo[cd]azulen-4-yl)-N-(1-methyl-1H-pyrazol-5-yl)pyrimidin-2-amine]"
14,9.18,"CN1C(=O)C[C@H](C2CC2)c2nnc3cc(-c4ccnc(Nc5ccnn5C)n4)cc1n23 [(R) I-65, 9-cyclopropyl-6-methyl-4-(2-((1-methyl-1H-pyrazol-5-yl)amino)pyrimidin-4-yl)-8,9-dihydro-1,2,2a^1,6-tetraazabenzo[cd]azulen-7(6H)-one]"
15,> 10.70,"CC(C)C[C@H]1COc2cc(-c3ccnc(Nc4ccnn4C)n3)cc3nnc1n23 [(R) I-45, 4-(3-isobutyl-3,4-dihydro-5-oxa-1,2,2a^1-triazaacenaphthylen-7-yl)-N-(1-methyl-1H-pyrazol-5-yl)pyrimidin-2-amine]"
16,7.03,"CCC(C)CC1COc2cc(-c3ccnc(Nc4ccnn4C)n3)cc3nnc1n23 (single isomer, unassigned) [(S) I-52, N-(1-methyl-1H-pyrazol-5-yl)-4-(3-(2-methylbutyl)-3,4-dihydro-5-oxa-1,2,2a^1-triazaacenaphthylen-7-yl)pyrimidin-2-amine]"
17,8.34,"Cn1nccc1Nc1cc(-c2cc3n4c(nnc4c2)[C@H](Oc2cncc(Cl)c2)CCO3)ccn1 [(R) I-78, 4-(9-((5-chloropyridin-3-yl)oxy)-8,9-dihydro-7H-6-oxa-1,2,2a^1-triazabenzo[cd]azulen-4-yl)-N-(1-methyl-1H-pyrazol-5-yl)pyridin-2-amine]"
18,6.75,"Cn1nccc1Nc1nccc(-c2cc3n4c(nnc4c2)[C@H](c2ccccc2)CN3)n1 [(R) I-1, N-(1-methyl-1H-pyrazol-5-yl)-4-(3-phenyl-4,5-dihydro-3H-1,2,2a^1,5-tetraazaacenaphthylen-7-yl)pyrimidin-2-amine]"
19,9.56,"CN1C(=O)N(Cc2ccc(Cl)cc2)c2nnc3cc(-c4ccnc(Nc5ccnn5C)n4)cc1n23 [Compound I-98, 3-(4-chlorobenzyl)-5-methyl-7-(2-((1-methyl-1H-pyrazol-5-yl)amino)pyrimidin-4-yl)-3H-1,2,2a^1,3,5-pentaazaacenaphthylen-4(5H)-one]"
20,8.87,"CN1C(=O)C[C@@H](Cc2ccc(Cl)cc2)c2nnc3cc(-c4ccnc(Nc5ccnn5C)c4)cc1n23 [(R) I-40, 9-(4-chlorobenzyl)-6-methyl-4-(2-((1-methyl-1H-pyrazol-5-yl)amino)pyridin-4-yl)-8,9-dihydro-1,2,2a^1,6-tetraazabenzo[cd]azulen-7(6H)-one]"
21,9.51,"COc1ccc(C[C@@H]2CNc3cc(-c4ccnc(Nc5ccnn5C)n4)cc4nnc2n34)cc1F [(R) I-12, 4-(3-(3-fluoro-4-methoxybenzyl)-4,5-dihydro-3H-1,2,2a^1,5-tetraazaacenaphthylen-7-yl)-N-(1-methyl-1H-pyrazol-5-yl)pyrimidin-2-amine]"
22,9.03,"Cn1nccc1Nc1nccc(-c2cc3n4c(nnc4c2)[C@H](Oc2ccccc2)CCO3)n1 [(R) I-90, N-(1-methyl-1H-pyrazol-5-yl)-4-(9-phenoxy-8,9-dihydro-7H-6-oxa-1,2,2a^1-triazabenzo[cd]azulen-4-yl)pyrimidin-2-amine]"
23,> 10.70,"Cn1nccc1Nc1cc(-c2cc3n4c(nnc4c2)C(Cc2ccc(Cl)cc2)CO3)ccn1 (single isomer, unassigned) [(R) I-55, 4-(3-(4-chlorobenzyl)-3,4-dihydro-5-oxa-1,2,2a^1-triazaacenaphthylen-7-yl)-N-(1-methyl-1H-pyrazol-5-yl)pyridin-2-amine]"
24,8.73,"COc1ccc(C[C@@H]2CNc3cc(-c4ccnc(Nc5ccnn5C)n4)cc4nnc2n34)cn1 [(R) I-24, 4-(3-((6-methoxypyridin-3-yl)methyl)-4,5-dihydro-3H-1,2,2a^1,5-tetraazaacenaphthylen-7-yl)-N-(1-methyl-1H-pyrazol-5-yl)pyrimidin-2-amine]"
25,9.29,"COc1ccc(C[C@@H]2CNc3cc(-c4ccnc(Nc5ccnn5C)n4)cc4nnc2n34)cc1 [(R) I-11, 4-(3-(4-methoxybenzyl)-4,5-dihydro-3H-1,2,2a^1,5-tetraazaacenaphthylen-7-yl)-N-(1-methyl-1H-pyrazol-5-yl)pyrimidin-2-amine]"
26,8.64,"CCC[C@@H]1CCOc2cc(-c3ccnc(Nc4ccnn4C)n3)cc3nnc1n23 [(R) I-104, N-(1-methyl-1H-pyrazol-5-yl)-4-(9-propyl-8,9-dihydro-7H-6-oxa-1,2,2a^1-triazabenzo[cd]azulen-4-yl)pyrimidin-2-amine]"
27,10.10,"Cn1nccc1Nc1nccc(-c2cc3n4c(nnc4c2)[C@@H](Cn2cc(Cl)cn2)CCO3)n1 [(R) I-42, (R)-4-(9-((4-chloro-1H-pyrazol-1-yl)methyl)-8,9-dihydro-7H-6-oxa-1,2,2a^1-triazabenzo[cd]azulen-4-yl)-N-(1-methyl-1H-pyrazol-5-yl)pyrimidin-2-amine]"
28,> 10.70,"Cn1nccc1Nc1cc(-c2cc3n4c(nnc4c2)[C@@H](Cc2ccccc2)CN3)ccn1 [(S) I-7, 4-(3-benzyl-4,5-dihydro-3H-1,2,2a^1,5-tetraazaacenaphthylen-7-yl)-N-(1-methyl-1H-pyrazol-5-yl)pyridin-2-amine]"
29,> 10.70,"Cn1nccc1Nc1nccc(-c2cc3n4c(nnc4c2)[C@@H](Oc2ccc(F)c(F)c2)CCO3)n1 [(S) I-111, 4-(9-(3,4-difluorophenoxy)-8,9-dihydro-7H-6-oxa-1,2,2a^1-triazabenzo[cd]azulen-4-yl)-N-(1-methyl-1H-pyrazol-5-yl)pyrimidin-2-amine]"
30,> 10.70,"COc1ccc(C[C@@H]2CC(=O)N(C)c3cc(-c4ccnc(Nc5ccnn5C)n4)cc4nnc2n34)cc1 [(R) I-62, 9-(4-methoxybenzyl)-6-methyl-4-(2-((1-methyl-1H-pyrazol-5-yl)amino)pyrimidin-4-yl)-8,9-dihydro-1,2,2a^1,6-tetraazabenzo[cd]azulen-7(6H)-one]"
